# According to publication PMC11923636, “Synthesis, Pharmacological Evaluation, and Molecular Modeling of Phthalimide Derivatives as Monoamine Oxidase and Cholinesterase Dual Inhibitors” (ACS Omega, 2025):
# “And” between values parts separate entries of the source, which are not always exact repeats. Equal values may be shown once.
# Experiments:
# [1] = target: Electrophorus electricus AChE (Electrophorus electricus, UniProt O42275); assay: biochemical; type: biochemical; details: for IC50: mean ± SEM, n = 3, read-out: IC50 (μM) ± SEM eeAChE; for SI = IC50 of BChE/IC50 of AChE: selectivity index
# Experimental: (§1) The synthesized compounds were evaluated for their inhibition potential against cholinesterases (Electrophorus electricus AChE and equine serum lyophilized BChE).
# (§2) The cholinesterase in vitro bioassay for the synthesized compounds was performed using already reported protocols.[29],[30] Ellman’s assay method was used to study the inhibition of Electrophorus electricus AChE and Equine Serum lyophilized BChE. Stock solutions of synthesized compounds were prepared in potassium phosphate buffer (pH 8.0). A sufficient amount of 5,5-dithio-bis-2-nitrobenzoic acid (DTNB, Ellman’s reagent), a stock solution of synthesized compounds, and 0.03 U/ml of the enzyme (AChE or BChE) were added to a 96-well plate and incubated at 30 °C for 10 min. Subsequently, 1 mM ATCI or BTCI was added, and the reaction mixture was incubated for 15 min. […] Sample concentration was plotted against inhibitory activity to obtain IC50 values.
# [2] = target: T1, equine serum lyophilized BChE (Equus caballus, UniProt P81908); assay: biochemical; details: mean ± SEM, n = 3; read-out: IC50 (μM) ± SEM eqBChE
# T1 construct: Equine Serum lyophilized BChE; from tissue; host or cells: equine serum
# Experimental: as §1, §2
# [3] = target: T2, human MAO-A (Homo sapiens, UniProt P21397); assay: Human MAO isoform inhibition assay (fluorometric), MAO-A; type: biochemical; details: mean ± SEM, n = 3; read-out: IC50 (μM) ± SEM hMAO-A
# T2 sequence (P21397 1-527): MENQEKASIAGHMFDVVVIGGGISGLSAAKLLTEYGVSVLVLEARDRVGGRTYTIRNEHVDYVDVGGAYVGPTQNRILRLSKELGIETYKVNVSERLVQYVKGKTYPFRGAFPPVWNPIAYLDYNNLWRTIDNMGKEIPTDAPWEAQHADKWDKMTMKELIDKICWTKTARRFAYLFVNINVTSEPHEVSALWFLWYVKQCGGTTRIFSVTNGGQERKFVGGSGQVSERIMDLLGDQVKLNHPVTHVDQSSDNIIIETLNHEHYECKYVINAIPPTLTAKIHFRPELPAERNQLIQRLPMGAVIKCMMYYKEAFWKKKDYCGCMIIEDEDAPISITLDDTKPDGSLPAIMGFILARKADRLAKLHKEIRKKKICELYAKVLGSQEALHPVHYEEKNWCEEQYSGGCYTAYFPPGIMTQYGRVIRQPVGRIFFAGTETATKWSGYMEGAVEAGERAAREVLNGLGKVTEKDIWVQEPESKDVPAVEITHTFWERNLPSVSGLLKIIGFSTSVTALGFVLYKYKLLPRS
# Experimental: (§3) The human MAO isoform assay was also carried out using a fluorescence-based assay protocol according to the reported literature.
# (§4) Inhibitory activity of the synthesized compounds against MAO isoforms, specifically human MAO-A and MAO-B, was determined by using benzylamine and tyramine substrates in the dark (protected from light) in a 96-well plate by an already reported fluorometric method.[31],[32]
# [4] = target: T3, human MAO-B (Homo sapiens, UniProt P27338); assay: Human MAO isoform inhibition assay (fluorometric), MAO-B; type: biochemical; details: for IC50: mean ± SEM, n = 3, read-out: IC50 (μM) ± SEM hMAO-B; for SI (IC50 hMAO-A/IC50 hMAO-B): selectivity index
# T3 sequence (P27338 1-520): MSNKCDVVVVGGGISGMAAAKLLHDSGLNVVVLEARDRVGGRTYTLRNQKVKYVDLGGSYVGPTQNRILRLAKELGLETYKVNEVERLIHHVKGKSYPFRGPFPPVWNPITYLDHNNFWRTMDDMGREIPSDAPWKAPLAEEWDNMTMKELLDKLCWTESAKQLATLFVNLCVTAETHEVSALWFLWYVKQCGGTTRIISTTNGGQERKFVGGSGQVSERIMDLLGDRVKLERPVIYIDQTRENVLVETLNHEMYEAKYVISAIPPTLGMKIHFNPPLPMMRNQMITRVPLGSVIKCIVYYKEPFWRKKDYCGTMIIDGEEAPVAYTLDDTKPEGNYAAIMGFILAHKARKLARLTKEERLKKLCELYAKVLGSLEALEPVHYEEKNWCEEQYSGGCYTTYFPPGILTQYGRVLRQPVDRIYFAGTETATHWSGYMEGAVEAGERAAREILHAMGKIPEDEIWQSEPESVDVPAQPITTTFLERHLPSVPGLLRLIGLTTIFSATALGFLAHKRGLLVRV
# Experimental: as §3, §4
# [5] = system: SH-SY5Y neuroblastoma cells; type: cell-based; details: MTT
# Experimental: To determine the biological safety of the synthesized compounds, we performed a cytotoxicity study using a human SH-SY5Y neuroblastoma cell line.
# SH-SY5Y cells were cultured in 96-well plates (1 × 10^5 cells/well) in a medium containing fetal bovine serum (FBS), penicillin (100 U/ml), and streptomycin ([…]) at 37 °C and 5% CO2. […] Subsequently, synthesized compounds were added to cells, followed by the addition of 20 μL of MTT reagent (10 mg/mL) at the specified time. Plates were then incubated at 37 °C and 5% CO2, and purple color precipitate formation was observed by a microscope. Lastly, DMSO ([…]) was added to solubilize precipitates, and the plates were read at 570 nm to determine the cell viability. Results are expressed as percentage growth of cells, in which their viability is compared to control cells in the presence or absence of synthesized compounds and a standard. The following formula was utilized for the measurement of the % cell viability. [drawing 1]
# [6] = in vitro; details: for Papp at 20 h: PAMPA, pH 7.4; for prediction of CNS penetration: class from PAMPA-BBB Pe
# Experimental: A fundamental requirement for the effectiveness of anti-AD drugs is their capability to traverse the BBB (blood–brain barrier). […]
# Briefly, synthesized compounds were first dissolved in DMSO (10 mM) that was further diluted by the addition of phosphate buffer ([…]) having a pH of 7.4. PBL dissolved in dodecane was used for coating the membranes of the donor plates. Then, the test compound (0.2 mL) was added to the plate, followed by PBS (0.2 mL; pH = 7.4) to the acceptor plate, which was further placed under the donor plate in order to form a “sandwich”. […] A UV plate reader was employed for the measurements of the drug concentration in donor, acceptor, and reference wells. The permeability (Pe) of the compounds was measured by using the following formula. [drawing 2]
# [7] = target: T4, mice brain MAO-B (Mus musculus, UniProt Q8BW75); assay: Ex vivo MAO-B inhibition reversibility time course; type: in vivo, ICR mice; details: after 24 h, single ip dose
# T4 construct: from tissue; host or cells: ICR mouse brain homogenate pellet
# T4 sequence (Q8BW75 1-520): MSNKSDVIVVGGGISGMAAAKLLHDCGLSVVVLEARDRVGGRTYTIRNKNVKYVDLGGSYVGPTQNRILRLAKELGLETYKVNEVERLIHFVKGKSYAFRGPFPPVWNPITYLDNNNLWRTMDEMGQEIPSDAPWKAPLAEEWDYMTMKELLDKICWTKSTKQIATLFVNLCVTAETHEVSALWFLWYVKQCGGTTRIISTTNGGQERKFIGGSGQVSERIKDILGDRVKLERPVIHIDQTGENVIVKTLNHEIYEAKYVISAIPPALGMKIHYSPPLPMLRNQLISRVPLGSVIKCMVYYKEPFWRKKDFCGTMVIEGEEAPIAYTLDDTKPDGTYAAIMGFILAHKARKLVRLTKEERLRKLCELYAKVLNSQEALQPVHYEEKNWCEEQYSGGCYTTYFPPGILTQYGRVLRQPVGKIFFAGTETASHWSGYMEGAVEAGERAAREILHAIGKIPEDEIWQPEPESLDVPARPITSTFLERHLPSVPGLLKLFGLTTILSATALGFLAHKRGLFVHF
# Experimental: After the experiments, the animals were euthanized following Animal Euthanasia (AVMA Guidelines) guidelines to ensure humane treatment. Five groups of ICR mice were administered test samples by intraperitoneal injection, and the intact brains were excised and were then frozen for almost 1 h (−20 °C). Brain tissue ([…]) was suspended in sucrose (0.3 M) using a homogenizer (Ultra-Turrax T8; at 60 Hz for almost 70 s) and then subjected to centrifugation for 10 min at 1500 rpm (4 °C). 200 μL of supernatant was collected and centrifuged for 20 min at 15,000 rpm and 4 °C. Subsequently, the formed pellet was resuspended in KHPO4 solution (pH 7.2, 600 μL) and then subjected to 20 min centrifugation at 15,000 rpm and 4 °C. This process was repeated three times. Enzyme activity was determined using an Assay Kit (monoamine oxidase). […] The mice were then sacrificed at intervals ranging from 0.5 to 48 h.[34]
# Sequence of Electrophorus electricus AChE (O42275 24-633): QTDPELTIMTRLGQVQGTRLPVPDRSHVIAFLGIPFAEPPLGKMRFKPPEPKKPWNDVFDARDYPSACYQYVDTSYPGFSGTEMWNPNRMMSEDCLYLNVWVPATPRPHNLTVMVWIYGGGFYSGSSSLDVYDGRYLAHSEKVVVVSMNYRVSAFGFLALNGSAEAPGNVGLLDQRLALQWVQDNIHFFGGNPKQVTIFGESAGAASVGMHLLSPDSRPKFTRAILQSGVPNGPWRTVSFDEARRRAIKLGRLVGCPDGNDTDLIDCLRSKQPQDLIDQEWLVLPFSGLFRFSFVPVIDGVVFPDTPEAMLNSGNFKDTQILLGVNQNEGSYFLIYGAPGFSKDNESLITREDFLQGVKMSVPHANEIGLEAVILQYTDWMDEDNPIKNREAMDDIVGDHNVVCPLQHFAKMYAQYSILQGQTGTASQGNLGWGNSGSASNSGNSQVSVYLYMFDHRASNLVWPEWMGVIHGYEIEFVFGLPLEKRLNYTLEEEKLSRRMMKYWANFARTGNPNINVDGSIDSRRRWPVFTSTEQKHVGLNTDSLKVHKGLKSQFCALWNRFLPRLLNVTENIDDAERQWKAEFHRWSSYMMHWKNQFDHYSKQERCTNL
# T1 sequence (P81908 whole entry): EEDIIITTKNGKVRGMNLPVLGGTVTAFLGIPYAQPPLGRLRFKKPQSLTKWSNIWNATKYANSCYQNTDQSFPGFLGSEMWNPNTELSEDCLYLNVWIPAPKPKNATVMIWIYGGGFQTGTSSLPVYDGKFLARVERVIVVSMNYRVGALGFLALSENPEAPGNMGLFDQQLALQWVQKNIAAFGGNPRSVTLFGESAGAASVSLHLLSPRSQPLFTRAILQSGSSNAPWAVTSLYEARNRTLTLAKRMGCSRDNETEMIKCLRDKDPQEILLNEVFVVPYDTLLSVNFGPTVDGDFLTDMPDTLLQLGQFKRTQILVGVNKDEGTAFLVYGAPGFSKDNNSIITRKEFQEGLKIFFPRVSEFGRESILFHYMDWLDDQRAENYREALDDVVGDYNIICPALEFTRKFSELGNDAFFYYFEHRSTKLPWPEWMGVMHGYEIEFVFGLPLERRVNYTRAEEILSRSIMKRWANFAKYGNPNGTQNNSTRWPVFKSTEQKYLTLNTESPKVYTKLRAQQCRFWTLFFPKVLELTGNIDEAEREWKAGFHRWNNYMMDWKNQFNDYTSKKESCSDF
SMILES,IC50 [1],SI = IC50 of BChE/IC50 of AChE [1],IC50 [2],IC50 [3],IC50 [4],SI (IC50 hMAO-A/IC50 hMAO-B) [4],"cytotoxicity on SH-SY5Y cells ([5]; 10, 20, 30, and 50 μM)",neurotoxicity on SH-SY5Y cells ([5]; higher concentrations (100 μM)),Papp at 20 h [6],prediction of CNS penetration [6],activity of MAO-B recovered [7]
O=C1c2ccccc2C(=O)N1Cc1ccc(-c2cccc(C(F)(F)F)c2)cc1 [3f],4.48 ± 0.11 µM,4,17 ± 1.04 µM,11.3 ± 0.2 µM,0.09 µM and 0.091 µM,124,No cytotoxicity,negligible neurotoxicity,183 ± 12.7 nm/s,CNS+ (“CNS+” (prediction of high BBB permeation); Pe (10^–6 cm/s) > 4.39),~80%
N#Cc1ccc(-c2ccc(CN3C(=O)c4ccccc4C3=O)cc2)cc1 [3d],9.21 ± 0.14 µM,4,33.5 ± 1.09 µM,28.8 ± 1.44 µM,0.64 ± 0.03 µM,45,,,,,
Cc1ccc2cc(-c3ccc(CN4C(=O)c5ccccc5C4=O)cc3)ccc2n1 [3m],0.89 ± 0.1 µM,35,31.1 ± 0.79 µM,23.5 ± 1.12 µM,0.15 ± 0.01 µM,156,,,,,
"C[C@H](NCc1ccc(OCc2cccc(F)c2)cc1)C(N)=O [safinamide, reference compound]",,,,,,,,,75.6 ± 0.2 nm/s,CNS+ (“CNS+” (prediction of high BBB permeation); Pe (10^–6 cm/s) > 4.39),
O=C1c2ccccc2C(=O)N1Cc1ccc(-c2ccc3c(c2)OCO3)cc1 [3k],21.1 ± 0.47 µM,3.8 and 4,80.7 ± 1.54 µM,40.4 ± 1.31 µM,0.66 ± 0.03 µM,61,,,,,
O=C1c2ccccc2C(=O)N1Cc1ccc(-c2cccs2)cc1 [3l],0.91 ± 0.02 µM,61,55.3 ± 1.31 µM,8.29 ± 0.33 µM,0.14 ± 0.01 µM,59,,,,,
Cc1cc(C)c(-c2ccc(CN3C(=O)c4ccccc4C3=O)cc2)c(C)c1 [3i],0.88 ± 0.05 µM,56,49.2 ± 1.11 µM,50.9 ± 1.42 µM,0.71 ± 0.04 µM,71,,,,,
N#CCc1ccc(-c2ccc(CN3C(=O)c4ccccc4C3=O)cc2)cc1 [3g],13.43 ± 0.08 µM,7,99.1 ± 1.21 µM,5.44 ± 0.16 µM,0.78 ± 0.04 µM,7,,,,,
Cc1cc(C)cc(-c2ccc(CN3C(=O)c4ccccc4C3=O)cc2)c1 [3h],0.73 ± 0.04 µM,40,29.6 ± 1.16 µM,75.1 ± 1.25 µM,0.64 ± 0.02 µM,117,,,,,
O=C1c2ccccc2C(=O)N1Cc1ccc(-c2ccc([N+](=O)[O-])cc2)cc1 [3c],0.94 ± 0.12 µM,52,49.1 ± 1.39 µM,19.4 ± 1.21 µM,0.24 ± 0.01 µM,80,,,,,
Cc1ccc(-c2ccc(CN3C(=O)c4ccccc4C3=O)cc2)cc1 [3a],3.16 ± 0.09 µM,15,49.1 ± 1.36 µM,19.3 ± 1.28 µM,1.04 ± 0.03 µM,18,,,,,
O=C1c2ccccc2C(=O)N1Cc1ccc(-c2cccc3ccccc23)cc1 [3j],0.61 ± 0.03 µM,31,18.9 ± 1.08 µM,6.98 ± 0.2 µM,0.13 ± 0.01 µM,53,,,,,
